Structures can show the parent of a compound that is named as a salt.

In the first assay the test system is Acinetobacter baumannii ATCC17961. In words: 90% growth inhibitory concentration (IC90) determination, antimicrobial susceptibility testing. It is filed as cell-based. The following applies: Acinetobacter baumannii, ATCC17961, 16 h, 90% growth inhibition, Iso-Sensitest broth, OD 600 nm over 16 h, 35±2° C.; read-out: ATCC 17961 IC90. Put shortly:
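Twofold serial dilutions (e.g. 50 to 0.097 μM final) in Iso-Sensitest broth, inoculated at ~5×10^5 CFU/ml and incubated at 35±2 °C for 16 h with OD600 read every minute. IC90 taken from growth inhibition during the logarithmic phase.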
Turning to `CCc1cc(Nc2nccn3c(-c4ccc(OC)c(F)c4F)cnc23)ccc1C(=O)NCCCCC[N+](C)(CC(=O)O)CC(=O)O` [Example 112, bis(carboxymethyl)-[5-[[4-[[3-(2,3-difluoro-4-methoxy-phenyl)imidazo[1,2-a]pyrazin-8-yl]amino]-2-ethyl-benzoyl]amino]pentyl]-methyl-ammonium 2,2,2-trifluoroacetate], the IC90 worked out at 2560 nM.
The same measure, in the same setting: next, `CCc1cc(Nc2nccn3c(-c4cn(CC(F)F)nc4C(F)(F)F)cnc23)ccc1C(=O)NCCCCC[N+](C)(C)CC(=O)O` [Example 113, Carboxymethyl-[5-[[4-[[3-[1-(2,2-difluoroethyl)-3-(trifluoromethyl)pyrazol-4-yl]imidazo[1,2-a]pyrazin-8-yl]amino]-2-ethyl-benzoyl]amino]pentyl]-dimethyl-ammonium Formate]: 2480 nM.
With `CCc1cc(Nc2nccn3c(-c4ccc(OC)c(F)c4F)cnc23)ccc1C(=O)NCC1CC[N+](C)(CC(=O)O)CC1` (stereo not drawn) [Example 115, 2-[4-[[[4-[[3-(2,3-Difluoro-4-methoxy-phenyl)imidazo[1,2-a]pyrazin-8-yl]amino]-2-ethyl-benzoyl]amino]methyl]-1-methyl-piperidin-1-ium-1-yl]acetic acid 2,2,2-trifluoroacetate], the IC90 was found to be 205 nM.
Take `C[N+]1(CC2CCNC2)CCC(C(=O)N2CCN(C(=O)c3ccc(Nc4nccn5c(-c6ccc(OC(F)F)c(F)c6F)cnc45)cc3Cl)CC2)CC1` (stereo not drawn) [Example 116, [2-Chloro-4-[[3-[4-(difluoromethoxy)-2,3-difluoro-phenyl]imidazo[1,2-a]pyrazin-8-yl]amino]phenyl]-[4-[1-methyl-1-(pyrrolidin-3-ylmethyl)piperidin-1-ium-4-carbonyl]piperazin-1-yl]methanone Formate]: the IC90 was 81.1 nM.
Still for that read-out and setting: next, `C[N+]1(CC2CCNC2)CCC(C(=O)NCCCNC(=O)c2ccc(Nc3nccn4c(-c5ccc(OC(F)F)c(F)c5F)cnc34)cc2Cl)CC1` (stereo not drawn) [Example 117, N-[3-[[2-Chloro-4-[[3-[4-(difluoromethoxy)-2,3-difluoro-phenyl]imidazo[1,2-a]pyrazin-8-yl]amino]benzoyl]amino]propyl]-1-methyl-1-(pyrrolidin-3-ylmethyl)piperidin-1-ium-4-carboxamide Formate]: 157 nM.
On the same count and under the same terms, as for `CCc1cc(Nc2nccn3c(-c4ccc(Oc5ncccn5)c(F)c4F)cnc23)ccc1C(=O)NCC1CC[N+](C)(CC2CCNC2)CC1` (stereo not drawn) [Example 118, 4-[[3-(2,3-Difluoro-4-pyrimidin-2-yloxy-phenyl)imidazo[1,2-a]pyrazin-8-yl]amino]-2-ethyl-N-[[1-methyl-1-(pyrrolidin-3-ylmethyl)piperidin-1-ium-4-yl]methyl]benzamide Formate], the figure is 832 nM; as for `CCc1cc(Nc2nccn3c(-c4ccc(OC(F)F)c(F)c4F)cnc23)ccc1C(=O)N1CC[N+](C)(CC2CCNC2)CC1` (stereo not drawn) [Example 119, [4-[[3-[4-(Difluoromethoxy)-2,3-difluoro-phenyl]imidazo[1,2-a]pyrazin-8-yl]amino]-2-ethyl-phenyl]-[4-methyl-4-(pyrrolidin-3-ylmethyl)piperazin-4-ium-1-yl]methanone Formate], 1700 nM.
Still for that read-out and setting: next, `CCc1cc(Nc2nccn3c(-c4ccc(OC)c(F)c4F)cnc23)ccc1C(=O)N[C@H]1C[C@@H](NC(=O)C2CC[N+](C)(CC3CNC3)CC2)C1` (stereo partly drawn) [Example 126, 1-(Azetidin-3-ylmethyl)-N-[3-[[4-[[3-(2,3-difluoro-4-methoxy-phenyl)imidazo[1,2-a]pyrazin-8-yl]amino]-2-ethyl-benzoyl]amino]cyclobutyl]-1-methyl-piperidin-1-ium-4-carboxamide formate 2,2,2-trifluoroacetate (Mixed Salt)]: 111 nM.
Take `CCc1cc(Nc2nccn3c(-c4ccc(OC)c(F)c4F)cnc23)ccc1C(=O)NCC1CC(NC(=O)C2CC[N+](C)(CC3CNC3)CC2)C1` (stereo not drawn) [Example 127, 1-(Azetidin-3-ylmethyl)-N-[3-[[[4-[[3-(2,3-difluoro-4-methoxy-phenyl)imidazo[1,2-a]pyrazin-8-yl]amino]-2-ethyl-benzoyl]amino]methyl]cyclobutyl]-1-methyl-piperidin-1-ium-4-carboxamide formate 2,2,2-trifluoroacetate (Mixed Salt)]: the IC90 was determined as 258 nM.
Still for that read-out and setting: next, `CCc1cc(Nc2nccn3c(-c4ccc(OC)c(F)c4F)cnc23)ccc1C(=O)NCC1CC[N+](CC(=O)O)(CC2CNC2)CC1` (stereo not drawn) [Example 128, 2-[1-(Azetidin-3-ylmethyl)-4-[[[4-[[3-(2,3-difluoro-4-methoxy-phenyl)imidazo[1,2-a]pyrazin-8-yl]amino]-2-ethyl-benzoyl]amino]methyl]piperidin-1-ium-1-yl]acetic acid bis(2,2,2-trifluoroacetate)]: 343 nM; `CCc1cc(Nc2nccn3c(-c4ccc(OC)c(F)c4F)cnc23)ccc1C(=O)NCCCNC(=O)C1CC[N+](C)(CC2CNC2)CC1` (stereo not drawn) [Example 129, 1-(Azetidin-3-ylmethyl)-N-[3-[[4-[[3-(2,3-difluoro-4-methoxy-phenyl)imidazo[1,2-a]pyrazin-8-yl]amino]-2-ethyl-benzoyl]amino]propyl]-1-methyl-piperidin-1-ium-4-carboxamide bis(trifluoroacetate)]: 86.2 nM.
Same read-out and setting: as for `CCc1cc(Nc2nccn3c(-c4ccc(OC)c(F)c4F)cnc23)ccc1C(=O)NCCCNC(=O)C[C@@H]1CC[N+](C)(CC2CNC2)C1` (stereo partly drawn) [Example 130, N-[3-[[2-[(3S)-1-(Azetidin-3-ylmethyl)-1-methyl-pyrrolidin-1-ium-3-yl]acetyl]amino]propyl]-4-[[3-(2,3-difluoro-4-methoxy-phenyl)imidazo[1,2-a]pyrazin-8-yl]amino]-2-ethyl-benzamide bis(2,2,2-trifluoroacetate)], the figure is 108 nM.
With `CCc1cc(Nc2nccn3c(-c4ccc(OC)c(F)c4F)cnc23)ccc1C(=O)NCCCNC(=O)CC1CC[N+](C)(CC2CNC2)CC1` (stereo not drawn) [Example 131, N-[3-[[2-[1-(Azetidin-3-ylmethyl)-1-methyl-piperidin-1-ium-4-yl]acetyl]amino]propyl]-4-[[3-(2,3-difluoro-4-methoxy-phenyl)imidazo[1,2-a]pyrazin-8-yl]amino]-2-ethyl-benzamide bis(2,2,2-trifluoroacetate)], the IC90 turned out to be 114 nM.
The same measure, in the same setting: as for `CCc1cc(Nc2nccn3c(-c4ccc(OC)c(F)c4F)cnc23)ccc1C(=O)NCC1CC[N+](C)(CC(=O)NCC2CCNC2)CC1` (stereo not drawn) [Example 132, 4-[[3-(2,3-Difluoro-4-methoxy-phenyl)imidazo[1,2-a]pyrazin-8-yl]amino]-2-ethyl-N-[[1-methyl-1-[2-oxo-2-(pyrrolidin-3-ylmethylamino)ethyl]piperidin-1-ium-4-yl]methyl]benzamide bis(2,2,2-trifluoroacetate)], the figure is 320 nM; as for `CCc1cc(Nc2nccn3c(-c4ccc(OC)c(F)c4F)cnc23)ccc1C(=O)NCC1CC[N+](C)(CC2CNC2)CC1` (stereo not drawn) [Example 134, N-[[1-(Azetidin-3-ylmethyl)-1-methyl-piperidin-1-ium-4-yl]methyl]-4-[[3-(2,3-difluoro-4-methoxy-phenyl)imidazo[1,2-a]pyrazin-8-yl]amino]-2-ethyl-benzamide; 2,2,2-trifluoroacetate bis(2,2,2-trifluoroacetate)], 350 nM.
On the same count and under the same terms, next, `CCc1cc(Nc2nccn3c(-c4ccc(OC)c(F)c4F)cnc23)ccc1C(=O)NCC1CC[N+](C)(CC2CC[N+](C)(C)C2)CC1` (stereo not drawn) [Example 135, 4-[[3-(2,3-Difluoro-4-methoxy-phenyl)imidazo[1,2-a]pyrazin-8-yl]amino]-N-[[1-[(1,1-dimethylpyrrolidin-1-ium-3-yl)methyl]-1-methyl-piperidin-1-ium-4-yl]methyl]-2-ethyl-benzamide Diformate]: 479 nM.
The same measure, in the same setting: as for `CCc1cc(Nc2nccn3c(-c4ccc(OC)c(F)c4F)cnc23)ccc1C(=O)NC1CC[N+](C)(CC2CNC2)CC1` (stereo not drawn) [Example 136, N-[1-(Azetidin-3-ylmethyl)-1-methyl-piperidin-1-ium-4-yl]-4-[[3-(2,3-difluoro-4-methoxy-phenyl)imidazo[1,2-a]pyrazin-8-yl]amino]-2-ethyl-benzamide bis(2,2,2-trifluoroacetate)], the figure is 955 nM.
As for `CCc1cc(Nc2nccn3c(-c4c[nH]nc4C(F)(F)F)cnc23)ccc1C(=O)NCC1CC[N+](C)(CC2CNC2)C1` (stereo not drawn) [Example 138, N-[[1-(Azetidin-3-ylmethyl)-1-methyl-pyrrolidin-1-ium-3-yl]methyl]-2-ethyl-4-[[3-[3-(trifluoromethyl)-1H-pyrazol-4-yl]imidazo[1,2-a]pyrazin-8-yl]amino]benzamide bis(2,2,2-trifluoroacetate)], the 90% effect concentration (IC90) was determined as 4140 nM.
The same measure, in the same setting: as for `CCc1cc(Nc2nccn3c(-c4ccc(OC)c(F)c4F)cnc23)ccc1C(=O)NCCC[N+](C)(CC1CNC1)CC1CNC1` [Example 139, Bis(azetidin-3-ylmethyl)-[3-[[4-[[3-(2,3-difluoro-4-methoxy-phenyl)imidazo[1,2-a]pyrazin-8-yl]amino]-2-ethyl-benzoyl]amino]propyl]-methyl-ammonium bis(2,2,2-trifluoroacetate)], the figure is 4820 nM.

Staying with this assay, now noted: Acinetobacter baumannii, ATCC17961, 16 h, read-out: ATCC 17961 IC90.
In the case of `CCc1cc(Nc2nccn3c(-c4ccc(OC)c(F)c4F)cnc23)ccc1C(=O)NCC1CCN(C(=O)C2CC[N+](C)(CC3CNC3)CC2)CC1` (stereo not drawn) [Example 133, N-[[1-[1-(Azetidin-3-ylmethyl)-1-methyl-piperidin-1-ium-4-carbonyl]-4-piperidyl]methyl]-4-[[3-(2,3-difluoro-4-methoxy-phenyl)imidazo[1,2-a]pyrazin-8-yl]amino]-2-ethyl-benzamide bis(2,2,2-trifluoroacetate)], the IC90 worked out at 334 nM.
The same measure, in the same setting: next, `CCc1cc(Nc2nccn3c(-c4ccc(OC)c(F)c4F)cnc23)ccc1C(=O)NCC1CC[N+](C)(Cc2cccnc2)CC1` (stereo not drawn) [Example 140, 4-[[3-(2,3-difluoro-4-methoxy-phenyl)imidazo[1,2-a]pyrazin-8-yl]amino]-2-ethyl-N-[[1-methyl-1-(3-pyridylmethyl)piperidin-1-ium-4-yl]methyl]benzamide; 2,2,2-trifluoroacetate]: 115 nM.

Source of the values: patent publication US20230141600A1, “IMIDAZOPYRAZINE DERIVATIVES” (priority 2020, published 2023).
